Measurements: patent publication US20120195847A1 (Nektar Therapeutics, priority 2008, published 2012)

Columns and labels:
[1] = Stability of biphalin during pre-incubation under physiological-like conditions; assay type: physicochemical; conditions: 72 hour incubation in assay buffer, pH 7.5 at 37° C.
[2] = test system: mice; conditions: intracerebroventricular (i.c.v); cited from earlier work
[3] = test system: mice; conditions: intrathecally (i.t.); cited from earlier work
[4] = molecular target: T1, human δ opioid receptor (Homo sapiens, UniProt P41143); assay: Radioligand competition binding assay, δ opioid receptor ([3H]DPDPE); conditions: 1 μM; pre-incubated 20 hours
T1 construct: expressed in transfected cells
T1 sequence (P41143 whole entry): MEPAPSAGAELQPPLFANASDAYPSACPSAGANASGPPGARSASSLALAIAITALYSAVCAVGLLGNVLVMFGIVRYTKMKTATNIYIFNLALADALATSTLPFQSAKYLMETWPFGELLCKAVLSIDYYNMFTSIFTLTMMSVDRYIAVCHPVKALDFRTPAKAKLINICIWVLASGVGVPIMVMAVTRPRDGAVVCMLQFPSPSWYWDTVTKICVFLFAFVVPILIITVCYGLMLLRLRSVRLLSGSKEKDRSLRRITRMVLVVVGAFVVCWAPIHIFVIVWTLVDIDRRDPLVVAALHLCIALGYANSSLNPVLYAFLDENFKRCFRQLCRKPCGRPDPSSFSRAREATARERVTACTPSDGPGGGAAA
Method: Competition binding experiments were conducted by incubating membrane protein to equilibrium in triplicate in the presence of a fixed concentration of radioligand and increasing concentrations (0.1 nM to 10 μM) of test compound in 100 μL final volume. The radioligands used were specific for each receptor type, and the assay conditions are described in Table BIP6.3. Following incubations, the membranes were rapidly filtered through GF/B filter plate (presoaked with 0.5% polyethyleneimine), washed four times with cold 50 mM Tris-HCl, pH 7.5, and the bound radioactivity was then measured. Non-specific binding was measured in the presence of excess naloxone (100 μM); this value was subtracted from the total binding to yield the specific binding at each test concentration.
The test compounds were stored under acidic condition to stabilize the PEG conjugation.
Ki (affinity of test compound) was obtained using the Cheng Prusoff correction using experimental Kd (affinity of radioligand) values that were previously determined under these assay conditions.

[5] = Stability of the conjugate during purification; assay type: physicochemical; conditions: reaction mixture, acidic pH values

Compound	stability following incubation [1]	potency in eliciting antinociception compared with morphine [2] [fold]	potency compared with morphine, tail flick testing [3] [fold]	inhibition of specific binding at the highest test concentration [4] [%]	stability of the conjugate [5]
C[C@@H](NC(=O)[C@@H](N)Cc1ccc(O)cc1)C(=O)NCC(=O)N[C@@H](Cc1ccccc1)C(=O)NNC(=O)[C@H](Cc1ccccc1)NC(=O)CNC(=O)[C@@H](C)NC(=O)[C@@H](N)Cc1ccc(O)cc1 [Biphalin, Tyr-D-Ala-Gly-Phe-NH-NH-Phe-Gly-D-Ala-Tyr]	remained stable	257	1000	–	–
Di-mPEG-SBC-30K-biphalin: releasable di-conjugate of biphalin with N-m-PEG-Benzamide-p-Succinimidyl Carbonate (m-PEG-SBC-30K); not purified	–	–	–	≤ 50	instability of the conjugate, even at acidic pH values
